These are literature values, as cited in patent US7101912B2, “Carbidopa prodrugs and derivatives, and compositions and uses thereof” (XenoPort, Inc., priority 2002, dated 2006).

Each structure is given as a SMILES string.

For data set [1] the following is noted: rats.

In the case of `CC(C)(C)C(=O)Oc1ccc(C[C@H](N)C(=O)O)cc1O` [NB-355], for the setting “following absorption from an intestinal loop”, the “conversion of the prodrug to levodopa in rat plasma” value was “slow”. For the same molecule, under “rat plasma following absorption from an intestinal loop”, the levels of levodopa entry was “low”.

For the molecule `C[C@@](Cc1ccc(O)c(O)c1)(NN)C(=O)O` [carbidopa], in data set [1], the “absorption following rectal administration” value is listed as “poor”.
